A short description of this assay: Measured activity expressed as ID50 (analogue)/ID50 (paclitaxel), where ID50 is the concentration of compound leading to 50% inhibition of the rate microtubule disassembly. Type of assay: functional.

With `CC(=O)O[C@@]12COC1C[C@H](O)[C@@]1(C)C(=O)[C@H](O)C3=C(C)[C@@H](OC(=O)[C@H](O)[C@@H](C=C(C)C)NC(=O)OC(C)(C)C)C[C@@](O)([C@@H](OC(=O)c4ccccc4)[C@@H]12)C3(C)C` (stereo partly specified), the Activity came out at 0.64.

The values are drawn from ChEMBL document CHEMBL1130335, “Comparative molecular field analysis of a series of paclitaxel analogues” (J Med Chem, 1997).
